Measurements published in patent US7759358B2, “Oral bioavailable prodrugs” (priority 2003, dated 2010).
“Also recorded” adds a separate entry of the source.

Legend:
[1] = oral therapy; cited from earlier work
[2] = Drug concentration in the skin after the 48 hour diffusion study
[3] = In vitro diffusion studies with human skin (flow-through diffusion cells); format: in vitro ADME; settings: for in vitro NTX (equivalent) flux across human skin, NTX-NTX compared with NTX: FIG. 2, mean of nine cells NTX and twelve cells NTX-NTX, three donors, paired Student's t-test p<0.05
Protocol: In vitro diffusion studies were conducted using human skin harvested during abdominal reduction surgery. Skin sections were obtained by using a Padgett dermatome set to 250 microns, and then were frozen at −20° C. until the time of the experiment. A PermeGear flow-through (In-Line, Riegelsville, Pa.) diffusion cell system was used for the diffusion studies. Data was collected utilizing three different specimens of frozen human tissue from three different donors. The human tissues had been frozen from two to five months. Three diffusion cells were used for NTX and four cells were used for NTX-NTX. A receiver buffer of HEPES-buffered Hank's balanced salts solution with gentamicin at pH of 7.3-7.4 was collected at a flow rate of 1.1 mL/h. A saturated NTX or NTX-NTX solution in light mineral oil was applied to the skin cells. Each cell received 0.25 mL of the respective drug solution. Samples were collected in six hour increments for 48 hours. After a six hour sample was obtained, they were stored at 4° C. until solid phase extraction processing. Skin cells were kept at 32° C. with a circulating water bath set to 39° C.
The diffusion data were plotted as the cumulative quantity of NTX equivalents collected in the receiver cell as a function of time. The flux value for a given experiment was computed from Fick's First Law of diffusion:
where Js is the steady-state flux, M is the cumulative amount of intact drug permeating the skin, A is the area of the cell (0.95 cm^2), Kp is the effective permeability coefficient in cm/h, and ΔC is the difference in concentration of NTX or NTX-NTX in the donor and receiver. Buildup in the receiver cell was kept to a minimum throughout the studies.
[…] in the skin and appeared as NTX in the receiver collection. The total amounts of NTX that absorbed through the skin and into the receiver from NTX and NTX-NTX were used in the data analysis. […] Data represent the mean±standard deviation of the nine skin cells with NTX and the twelve skin cells with NTX-NTX. Three individual human donor skin tissues were used. Due to the high variability of human skin, NTX was used with each experiment as a control. The results are reported in NTX nmol equivalents because the NTX-NTX duplex contains two molecules of NTX. Approximately 4% of the NTX flux was from the intact NTX-NTX prodrug, and 96% was NTX originating from the hydrolysis of NTX-NTX.
The data represents the mean±standard deviation of the nine cells with NTX and the twelve cells of NTX-NTX. Three individual human donor skin tissues were used.

[4] = saturated solution in light mineral oil, human skin, 32° C., 48 hours, receiver collection

O=C1CC[C@@]2(O)[C@H]3Cc4ccc(O)c5c4[C@@]2(CCN3CC2CC2)[C@H]1O5 [NTX, Naltrexone]
hepatotoxicity [1]: dose-related hepatocellular injury

O=C(Oc1ccc2c3c1OC1C(=O)CC[C@@]4(O)[C@@H](C2)N(CC2CC2)CC[C@]314)Oc1ccc2c3c1OC1C(=O)CC[C@@]4(O)[C@@H](C2)N(CC2CC2)CC[C@]314 (stereo partly shown) [NTX-NTX, 3,3′-Di-(N-cyclopropylmethyl-4,5-epoxy-14-hydroxy-morphinan-6-one-3-yl) Carbonate]
total NTX equivalent skin concentration, NTX-NTX-treated skin versus NTX-treated skin ([2]; after 48 hour diffusion study, FIG. 3): No significant difference
share of the drug extracted from the NTX-NTX-treated skin that was NTX (bioconversion) ([2]; end of the 48 hour study, human skin): 66%
in vitro NTX (equivalent) flux across human skin, NTX-NTX compared with NTX [3]: significant difference between the means; also recorded: significant increase in NTX equivalent flux
in vitro NTX (equivalent) flux across human skin, NTX-NTX compared with NTX ([3]; listed as duplex prodrug of NTX): unexpected increase of NTX maximum flux rate
share of the NTX flux that was NTX originating from the hydrolysis of NTX-NTX [3, 4]: 96%
share of the NTX flux that was intact NTX-NTX prodrug [3, 4]: Approximately 4%
